Data published in US5143908A, “Antibacterial agents and potentiators of carbapenem antibiotics” (Merck & Co., Inc., priority 1990, dated 1992).
In brackets after ≈: the same amount, converted by molar mass.

Legend:
[1] = target: T1, D-Alanyl-D-Alanine ligase (Enterococcus hirae, UniProt Q47827); assay: D-Alanyl-D-Alanine ligase inhibition in vitro; format: biochemical; settings: inhibitor pre-incubated with enzyme 40 minutes at room temperature, then 37° C. for 30 minutes; 14C-D-alanine substrate; read-out: IC50 (μM), DAlaAla ligase inhibition
T1 sequence (Q47827 1-358): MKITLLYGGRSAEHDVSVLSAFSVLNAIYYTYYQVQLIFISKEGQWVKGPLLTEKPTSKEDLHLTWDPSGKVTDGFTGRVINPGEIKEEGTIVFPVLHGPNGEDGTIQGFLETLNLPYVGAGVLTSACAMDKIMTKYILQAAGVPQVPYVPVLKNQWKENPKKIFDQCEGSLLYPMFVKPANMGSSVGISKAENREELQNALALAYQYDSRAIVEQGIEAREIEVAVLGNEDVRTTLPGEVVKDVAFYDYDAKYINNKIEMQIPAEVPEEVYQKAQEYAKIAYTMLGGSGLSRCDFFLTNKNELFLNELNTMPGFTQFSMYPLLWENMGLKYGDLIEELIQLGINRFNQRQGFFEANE
Description: The ligase enzyme inhibitory activity of compounds of Formula I have been evaluated in vitro with only minor modifications of the procedures of F. C. Neuhaus (Biochemistry 3, 471-480 (1964) and references cited therein) using D-cycloserine as a control and standard ligase inhibitor. The procedure is as follows:
Streptococcus faecalis (ATCC 8043) was grown as described by Neuhaus (J. Biol. Chem., 237:778, 1962). Cell-free extracts were prepared by sonication followed by centrifugation at 27,000 x g for 30 minutes. Protein was precipitated with 55% ammonium sulfate. The precipitate was dissolved in 0.05M Tris-Cl buffer (pH 7.0), dialyzed against 0.002M glutathione and stored in liquid nitrogen. No loss of activity was observed after 1 year.
The assay mixture contained 0.05M Tris-Cl buffer (pH 7.9), 0.01M KCl, 0.008M MgCl2, 0.005M ATP, 0.005M (14C-l)-D-alanine and 5 μl of enzyme (specific activity=0.38 units/mg protein). Assay volume was 0.1 ml.
Inhibitors were pre-incubated with enzyme, MgCl2, KCl and buffer, for 40 minutes at room temperature, before addition of ATP and substrate. Samples were subsequently incubated at 37° C. for 30 minutes.
Twenty μl of each sample was applied to the preabsorbent layer of high resolution, prechanneled silica-gel TLC plates to stop the reaction. Plates were developed in ethanol:ammonium hydroxide:H2 O (11:1:8) for 2-3 hours and the radioactive zones located and integrated with a Berthold Linear Analyzer. […] IC50's were determined for active compounds (70% inhibition).

[2] = test system: E. coli TEM 2+; assay: Agar dilution antibacterial assay (MIC); format: cell-based; settings: Escherichia coli, read-out: Minimum Inhibitory Concentration, E. coli TEM 2+
From the text: The antibacterial data shown below were obtained using a synthetic agar medium described by F. R. Atherton et al., Antimicrobial Agents and Chemotherapy, 15, 677 (1979).
(Minimum Inhibitory Concentrations from Agar Dilution Assays in mg/ml)

| Compound | IC50 [1] [µM] | MIC [2] [mg/mL] |
| --- | --- | --- |
| CCCCCCCC(CP(=O)(O)C(C)N)C(=O)O (racemic) [DL, R2=n-heptyl, R3=H, 1-Aminoethyl-[2-carboxy-1-nonyl]phosphinic acid] | 12.5 | – |
| CC(N)P(=O)(O)CCC(=O)O (racemic) [DL, R2=H, R3=H, 1-Aminoethyl-[2-carboxy-1-ethyl]phosphinic acid] | 535 | – |
| CCC(CP(=O)(O)C(C)N)C(=O)O (racemic) [DL, R2=ethyl, R3=H, 1-Aminoethyl-[2-carboxy-1-n-butyl]phosphinic acid] | 50 | – |
| CCC(CP(=O)(O)[C@@H](C)N)C(=O)O (stereo partly drawn) [D, R2=ethyl, R3=H, 1-D-Aminoethyl-(2-carboxy-1-n-butyl)phosphinic acid] | – | 64 (≈ 306 mM) |
